The record followed here is patent publication US20250051321A1, “TRICYCLIC DERIVATIVE AND PREPARATION METHOD THEREFOR AND APPLICATION THEREOF” (SHANGHAI JEMINCARE PHARMACEUTICAL CO., LTD., priority 2021, published 2025).

pIC50: −log10 of the molar value.

The target in the first assay is ATX (Homo sapiens (Human), UniProt Q13822). As to the kind of experiment: ATX enzyme inhibition assay (Amplex UltraRed/choline oxidase/HRP, 16:0 Lyso PC substrate). The assay is classed as biochemical. The note with it: assay buffer pH 8.5; read-out: IC50 (nM) pH 8.5. The procedure:
All compounds were prepared as a 10 mM DMSO stock solution.
Solutions at pH 8.5 and pH 7.5 were prepared respectively with the following formulations:
All compounds, including the positive control compound, were diluted 5-fold from 10 mM to 2 mM with DMSO in the first step. The mixture was then diluted to 100 μM with 1× assay buffer.
3. Separate Detection of Compounds with 1× Assay Buffer at Two pH Values:
a) 5 μL of 10× compound diluent was added to a 384-well plate (Greiner 781209) using a motorized pipette (see the “experimental preparation” step). 5 μL of 1× assay buffer containing 5% DMSO was added to both negative and positive control wells. The plate was centrifuged at 300 rpm for 1 minute at room temperature.
b) 2× ATX ([…]) was prepared with 1× assay buffer, and 25 μL of 2× ATX was added to the plate using a motorized pipette. 25 μL of 1× assay buffer was added to the negative control wells and 25 μL of 2× ATX was added to the positive control wells. The plate was centrifuged at 300 rpm for 1 minute at room temperature.
The plate was incubated at room temperature for 10 minutes.
c) 2.5× working solution containing Amplex UltraRed reagent (125 μM), HRP (2.5 U/mL), choline oxidase (1.25 U/mL), and 16:0 Lyso PC (75 μM) was prepared with 1× assay buffer. 20 μL of 2.5× working solution was added to all reaction wells using a motorized pipette. The plate was centrifuged at 300 rpm for 1 minute at room temperature.
d) The plate was detected by SpectraMax with the following procedures: fluorescence mode; excitation at 550 nm; emission at 590 nm; kinetics; read once every 2 minutes; read continuously for 60 minutes.
The calculation formula of % inhibition (i.e., % inhibition rate) was as follows: […]
V0: X-axis is taken as 0 to 30 minutes, Y-axis is taken as fluorescence readings, and the slope corresponding to the straight line fitted by the software GraphPad Prism 8 is the initial response rate.
V0max: Average V0 of the positive control wells in the plate.
V0min: Average V0 of the negative control wells in the plate.
The IC50 of the compounds was calculated from a nonlinear regression line (dose-initial response rate) fitted by % inhibition and log value of compound concentration using the software GrahPad Prism 8.
On to `CN(c1nc(-c2ccc(F)cc2)c(C#N)s1)c1c2c(nc3c(F)cc(N4CC5(CN(C(=O)[C@H]6CCOC6)C5)C4)cc13)[C@@H](O)CC2` (single isomer, unassigned) [Example E5-b], for which the IC50 was found to be 23.7 nM.

For the molecule `C[C@@H]1CN(CC(=O)N2CC(O)C2)CCN1c1cc(F)c2nc3c(c(N(C)c4nc(-c5ccc(F)cc5)c(C#N)s4)c2c1)CC[C@@H]3O` (single isomer, unassigned) [Example E6-a], the IC50 stood at 18.3 nM.

In the case of `C[C@H]1CN(CC(=O)N2CC(O)C2)CCN1c1cc(F)c2nc3c(c(N(C)c4nc(-c5ccc(F)cc5)c(C#N)s4)c2c1)CC[C@H]3O` (single isomer, unassigned) [Example E7-b], the IC50 came to 18.9 nM.

With `C[C@H]1CN(c2cc(F)c3nc4c(c(N(C)c5nc(-c6ccc(F)cc6)c(C#N)s5)c3c2)CC[C@H]4O)CCN1CC(=O)N1CC(O)C1` (single isomer, unassigned) [Example E8-b], the IC50 turned out to be 19.4 nM.

On to `CN(c1nc(-c2ccc(F)cc2)c(C#N)s1)c1c2c(nc3c(F)cc(N4CC5(CN(C(=O)[C@@H]6CCOC6)C5)C4)cc13)[C@H](O)CC2` (single isomer, unassigned) [Example E13-b], for which the IC50 was found to be 20.2 nM.

For `CN(c1nc(-c2ccc(F)cc2)c(C#N)s1)c1c2c(nc3c(F)cc(N4CC5(CN(C(=O)C6CCOCC6)C5)C4)cc13)[C@@H](O)CC2` (single isomer, unassigned) [Example E14-a], the IC50 turned out to be 16.6 nM.

Consider `CN(c1nc(-c2ccc(F)cc2)c(C#N)s1)c1c2c(nc3c(F)cc(N4CC5(CN(C(=O)C6CCOCC6)C5)C4)cc13)[C@H](O)CC2` (single isomer, unassigned) [Example E14-b], for which the 50% inhibitory concentration (IC50) is 14.7 nM.

In a further assay the test system is plasma LPA 18:1 and LPA 18:2. Kind of assay: Human plasma ex vivo assay (LPA 18:1 / 18:2 by LC-MS/MS). The note with it: 37° C., 2 hours, LPA 18:1, read-out: Human plasma ex vivo assay IC50 (18:1 LPA). The assay is classed as biochemical. The procedure: The collected plasma was centrifuged at 4000 rpm for 15 minutes at 4° C. The supernatant was aliquoted into a 96-well plate (25 μL per well), sealed, and frozen at −80° C. for further use.
LPA 17:0 powder was dissolved in a mixed solution of water: isopropanol: formic acid (1:1:1) to a final concentration of […]. The mixture was aliquoted and frozen at −20° C.
1 volume of formic acid was added to 1000× methanol, mixed well, and stored at 4° C. a) The 96-well plate containing frozen plasma was removed from the −80° C. freezer and thawed on ice at room temperature. b) 6 μL of 50× LPA 17:0 (internal standard) and 264 μL of 0.1% FA were added to a clean well of the 96-well plate; the final concentration of LPA 17:0 (internal standard) was 50 nM. c) 6× compound was 1:3 serially diluted to a total of 8 concentrations, and 5 μL of the compound per well was added to the 96-well plate containing plasma. The maximum final concentration of the compound was 10 μM, and the final concentration of DMSO was 0.1%. The plate was centrifuged at 300 rpm for 30 seconds. The DMSO control sample reacted for 0 hours was used as the minimum value (Min), and the DMSO control sample reacted for 2 hours was used as the maximum value (Max). […]
d) The DMSO sample reacted for 0 hours was rapidly transferred to 0.1% FA solution containing the internal standard in step b) to terminate the reaction and precipitate plasma proteins. e) The 96-well plate containing plasma and compounds was rapidly incubated in a 37° C. incubator for 2 hours. After the incubation, 6 μL of 10× LPA 17:0 and 264 μL of 0.1% FA were added to each well to terminate the reaction and precipitate plasma proteins. […]
f) All the samples were mixed well with a pipette, and centrifuged at 4000 rpm for 10 minutes at 4° C. 150 μL of the supernatant was added to a 96-well U-bottom plate (Thermo 267245), sealed with silica gel, and then loaded. The contents of LPA 18:1 and LPA 18:2 in the samples were detected by LC-MS/MS system.
LPA 18:1(or 18:2) relative content=LPA 18:1(or 18:2) peak area/LPA 17:0 peak area Percentage reduction (%) in plasma LPA18:1(or 18:2)=(Max−X)/(Max−Min)*100 Max: LPA 18:1 (or 18:2) relative content of the DMSO sample reacted for 2 hours Min: LPA 18:1 (or 18:2) relative content of the DMSO sample reacted for 0 hours X: LPA 18:1 (or 18:2) relative content of the sample after compound treatment for 2 hours The IC50 of the compounds was calculated by fitting a nonlinear regression through percentage reduction in plasma LPA 18:1 (or 18:2) and log value of compound concentration using the software GraphPad Prism 8.
Y=Bottom+(Top−Bottom)/(1+10^((Log IC50−X)*Hill Slope))
`CN(c1nc(-c2ccc(F)cc2)c(C#N)s1)c1c2c(nc3c(F)cc(N4CCN(CC(=O)N5CC[C@H](O)C5)CC4)cc13)C(O)CC2` (stereo partly shown) [Example E41]: the pIC50 was 6.52.

For `CN1CCC(F)(C(=O)N2CC3(C2)CN(c2cc(F)c4nc5c(c(N(C)c6nc(-c7ccc(F)cc7)c(C#N)s6)c4c2)CCC5O)C3)C1` (stereo not shown) [Example E42], the pIC50 is 6.39.

Consider `CC(C)C(=O)N1CC2(C1)CN(c1cc(F)c3nc4c(c(N(C)c5nc(-c6ccc(F)cc6)c(C#N)s5)c3c1)CCC4O)C2` (stereo not shown) [Example E43], for which the pIC50 was 6.18.

For the molecule `CN(c1nc(-c2ccc(F)cc2)c(C#N)s1)c1c2c(nc3c(F)cc(N4CC5(CN(CC(=O)N6CC(C)(O)C6)C5)C4)cc13)C(O)CC2` (stereo not shown) [Example E44], the negative logarithm of the IC50 (pIC50) was 6.53.

With `CN(c1nc(-c2ccc(F)cc2)c(C#N)s1)c1c2c(nc3c(F)cc(N4CC5(CCN(CC(=O)N6CC(O)C6)CC5)C4)cc13)C(O)CC2` (stereo not shown) [Example E45], the negative logarithm of the IC50 (pIC50) was 6.23.

As for `CN(c1nc(-c2ccc(F)cc2)c(C#N)s1)c1c2c(nc3c(F)cc(N4CC5(CN(C(=O)CN6CC(O)C6)C5)C4)cc13)C(O)CC2` (stereo not shown) [Example E47], the pIC50 is 6.36.

Staying with this assay, now noted: 37° C., 2 hours, LPA 18:2, read-out: Human plasma ex vivo assay IC50 (18:2 LPA).
Regarding `CN(c1nc(-c2ccc(F)cc2)c(C#N)s1)c1c2c(nc3c(F)cc(N4CCN(CC(=O)N5CC[C@H](O)C5)CC4)cc13)C(O)CC2` (stereo partly shown) [Example E41], the pIC50 was 6.53.

Regarding `CN1CCC(F)(C(=O)N2CC3(C2)CN(c2cc(F)c4nc5c(c(N(C)c6nc(-c7ccc(F)cc7)c(C#N)s6)c4c2)CCC5O)C3)C1` (stereo not shown) [Example E42], the pIC50 is 6.33.

As to `CC(C)C(=O)N1CC2(C1)CN(c1cc(F)c3nc4c(c(N(C)c5nc(-c6ccc(F)cc6)c(C#N)s5)c3c1)CCC4O)C2` (stereo not shown) [Example E43], the pIC50 is 6.13.

As to `CN(c1nc(-c2ccc(F)cc2)c(C#N)s1)c1c2c(nc3c(F)cc(N4CC5(CN(CC(=O)N6CC(C)(O)C6)C5)C4)cc13)C(O)CC2` (stereo not shown) [Example E44], the pIC50 was 6.53.

With `CN(c1nc(-c2ccc(F)cc2)c(C#N)s1)c1c2c(nc3c(F)cc(N4CC5(CCN(CC(=O)N6CC(O)C6)CC5)C4)cc13)C(O)CC2` (stereo not shown) [Example E45], the negative-log IC50 (pIC50) was 6.45.

In the case of `CN(c1nc(-c2ccc(F)cc2)c(C#N)s1)c1c2c(nc3c(F)cc(N4CC5(CN(C(=O)CN6CC(O)C6)C5)C4)cc13)C(O)CC2` (stereo not shown) [Example E47], the pIC50 was 6.39.

As usually defined, the IC50 is the concentration that gives 50% inhibition. By pIC50 is commonly meant −log10 of the IC50, conventionally taken in molar units.
